Test results published in patent US20170224662A1 (priority 2016, published 2017).
Values after ≈ are worked out from the molar mass of the structure shown. Read-outs that look alike come from different tables or passages of the source.

Columns and labels:
Assay type in all cases: physicochemical
[1] = 1- and 2-week accelerated stability of CPMM (~0.3 mg/mL) in aqueous pH buffer media, HPLC purity; details: for CPMM % Purity: t = 0
Method: The aqueous CPMM pH 1-9 samples described above were diluted as necessary to approximately 0.3 mg/mL and placed on accelerated stability at 25° C./60% relative humidity and 40° C./75% relative humidity conditions for two weeks. Samples were pulled at t=0, 1, and 2 weeks from set-up, and analyzed by HPLC. Samples were diluted to approximately 0.3 mg/mL, which well below the HPLC method nominal concentration, due to concerns of precipitation during the two week stability study. The injection volume was increased to compensate for the lower drug concentration in solution. The change in CPMM purity over the study duration is listed in Table 3 and plotted in FIGS. 3-5.
The pH 1 sample was placed on stability at a non-diluted concentration due to an error. This sample was re-diluted at the one-week time point to match the concentration in the pH 2-9 samples and re-placed on stability. The pH 9 sample results were not included in FIGS. 3-5 due to excessive degradation and for easier visual assessment over the more relevant pH 2-8 range.

physchem [2] = details: imidazole nitrogen in position 3; solubility analysis (log solubility curve) and titration
Text: The solubility of compounds as disclosed herein is pH-dependent. The imidazole nitrogen in position 3 of CPMM has a pKa of approximately 2.5, as determined by solubility analysis and titration. For example, CPMM is very water soluble at low pH, but solubility decreases with increasing pH, such that it is lower at pH 3-8.

physchem [3] = details: for HPLC [CPMM] Concentration: diluted sample; for Actual [CPMM] Concentration: never saturated, stopped after 100 mg added
Method: CPMM solubility was also evaluated in common solvents: water, methanol, ethanol, acetonitrile, and isopropanol. CPMM was weighed into 1.0 mL of each solvent and vortex-mixed. Only the water sample was saturated with CPMM; the other solvents never achieved saturation due to their high CPMM solubility. The screening was stopped after 100 mg of bulk CPMM had been added. Table 2 lists the ABP-700 solubility results in common solvents.

physchem [4] = details: thermodynamic from solid
Method: A study was conducted to evaluate whether buffer concentration affects the maximum solubility of CPMM. […] The solutions were prepared and CPMM was added until saturation was achieved. The pH was controlled by continually titrating the solutions to pH 6 using NaOH. Saturation was determined to have been achieved after the pH had stabilized and undissolved remained in the vial after overnight shaking. Solubility was evaluated by taking two separate samplings over the course of two days to verify that saturation had been achieved. Solubility was measured when the formulations were at room temperature, as well as tested when the formulations were under sub-ambient conditions (2-8° C.) to evaluate whether the solubility would be affected at lower temperatures for long term storage at (2-8° C.).

physchem [5] = details: aqueous buffer, thermodynamic from solid, read-out: Actual [CPMM] Concentration (maximum solubility)
Method: CPMM was evaluated for maximum solubility in aqueous pH 1-9 buffer solutions. CPMM was weighted into 1.0 mL of each solution, vortex mixed to solubilize, and placed on a shaker table until saturated. Additional CPMM was added and replaced on the shaker table until a saturated solution was obtained. The one exception was the pH 1 sample solution, which never reached saturation level due to the CPMM's high solubility at that pH range. Saturated solutions were centrifuged and the supernatants were analyzed by HPLC.

What does the source list for `COC(=O)C1(OC(=O)c2cncn2[C@H](C)c2ccccc2)CC1` [CPMM, 1-(methoxycarbonyl)cyclopropyl-1-[(1R)-1-phenylethyl]-1H-imidazole-5-carboxylate]?
CPMM % Purity ([1]; 50 mM buffer pH 2 (Phosphoric Acid)): 99.39%; CPMM % Purity ([1]; 50 mM buffer pH 3 (Phosphoric Acid)): 99.33%; CPMM % Purity ([1]; 50 mM buffer pH 4 (Citric Acid)): 98.59%; CPMM % Purity ([1]; 50 mM buffer pH 5 (Citric Acid)): 97.77%; CPMM % Purity ([1]; 50 mM buffer pH 6 (Citric Acid)): 97.55%; CPMM % Purity ([1]; 50 mM buffer pH 7 (Phosphoric Acid)): 98.16%; CPMM % Purity ([1]; 50 mM buffer pH 8 (Phosphoric Acid)): 98.32%; CPMM % Purity ([1]; 50 mM buffer pH 9 (Boric Acid)): 94.98%; Change in CPMM % Purity ([1]; pH 5 (Citric Acid), 25° C./60% RH, t = 1 week): −0.62%; Change in CPMM % Purity ([1]; pH 5 (Citric Acid), 25° C./60% RH, t = 2 week): −1.06%; Change in CPMM % Purity ([1]; pH 5 (Citric Acid), 40° C./75% RH, t = 1 week): −2.16%; Change in CPMM % Purity ([1]; pH 5 (Citric Acid), 40° C./75% RH, t = 2 week): −3.48%; Change in CPMM % Purity ([1]; pH 6 (Citric Acid), 25° C./60% RH, t = 1 week): −0.33%; Change in CPMM % Purity ([1]; pH 6 (Citric Acid), 25° C./60% RH, t = 2 week): −0.55%; Change in CPMM % Purity ([1]; pH 6 (Citric Acid), 40° C./75% RH, t = 1 week): −2.72%; Change in CPMM % Purity ([1]; pH 6 (Citric Acid), 40° C./75% RH, t = 2 week): −3.49%; Change in CPMM % Purity ([1]; pH 7 (Phosphoric Acid), 25° C./60% RH, t = 1 week): −0.39%; Change in CPMM % Purity ([1]; pH 7 (Phosphoric Acid), 25° C./60% RH, t = 2 week): −0.96%; pKa (physchem [2]): ~2.5; HPLC [CPMM] Concentration (physchem [3]; Acetonitrile, dilution factor 166.67): 474.2 µg/mL; Actual [CPMM] Concentration (physchem [3]; Acetonitrile): 79034.9 µg/mL; HPLC [CPMM] Concentration (physchem [3]; Ethanol, dilution factor 166.67): 534.3 µg/mL; Actual [CPMM] Concentration (physchem [3]; Ethanol): 89051.8 µg/mL; HPLC [CPMM] Concentration (physchem [3]; Isopropanol, dilution factor 166.67): 514.5 µg/mL; Actual [CPMM] Concentration (physchem [3]; Isopropanol): 85751.7 µg/mL; HPLC [CPMM] Concentration (physchem [3]; Methanol, dilution factor 166.67): 503.2 µg/mL; Actual [CPMM] Concentration (physchem [3]; Methanol): 83868.3 µg/mL; HPLC [CPMM] Concentration (physchem [3]; Water, dilution factor 6.67): 449.2 µg/mL; solubility thermodynamic (physchem [3]; thermodynamic from solid, Water, saturated, read-out: Actual [CPMM] Concentration): 3000 µg/mL (≈ 9.53 mM); solubility (physchem [4]; 2 °C, pH 6.02, aqueous with cosolvent or surfactant or cyclodextrin, 10% SBECD in 25 mM Citrate, 2-8° C./ambient RH, pH 6.02, read-out: CPMM Amount (maximum solubility)): 5590 µg/mL (≈ 17.8 mM); solubility (physchem [4]; 2 °C, pH 6.05, aqueous with cosolvent or surfactant or cyclodextrin, 10% SBECD in 10 mM Citrate, 2-8° C./ambient RH, pH 6.05, read-out: CPMM Amount (maximum solubility)): 5480 µg/mL (≈ 17.4 mM); solubility (physchem [4]; pH 5.96, aqueous buffer, 10 mM Citrate, RT/Ambient RH, pH 5.96, read-out: CPMM Amount (maximum solubility)): 300 µg/mL (≈ 0.954 mM); solubility (physchem [4]; pH 5.98, aqueous buffer, 50 mM Citrate, RT/Ambient RH, pH 5.98, read-out: CPMM Amount (maximum solubility)): 230 µg/mL (≈ 0.732 mM); solubility (physchem [4]; pH 5.98, aqueous with cosolvent or surfactant or cyclodextrin, 10% SBECD in 10 mM Citrate, RT/Ambient RH, pH 5.98, read-out: CPMM Amount (maximum solubility)): 5470 µg/mL (≈ 17.4 mM); solubility (physchem [4]; pH 5.98, aqueous with cosolvent or surfactant or cyclodextrin, 10% SBECD in 25 mM Citrate, RT/Ambient RH, pH 5.98, read-out: CPMM Amount (maximum solubility)): 5490 µg/mL (≈ 17.5 mM); solubility (physchem [4]; pH 5.99, aqueous with cosolvent or surfactant or cyclodextrin, 10% SBECD in 50 mM Citrate, RT/Ambient RH, pH 5.99, read-out: CPMM Amount (maximum solubility)): 5680 µg/mL (≈ 18.1 mM); solubility (physchem [4]; pH 6, aqueous buffer, 25 mM Citrate, RT/Ambient RH, pH 6.00, read-out: CPMM Amount (maximum solubility)): 280 µg/mL (≈ 0.891 mM); solubility (physchem [4]; pH 6, aqueous buffer, citrate solutions containing no SBECD, read-out: solubility): ~300 µg/mL (≈ 0.954 mM); solubility (physchem [4]; pH 6, aqueous with cosolvent or surfactant or cyclodextrin, 10% SBECD solutions at all citrate concentrations, regardless of the condition, read-out: solubility): ~5500 µg/mL (≈ 17.5 mM); solubility (physchem [5]; 50 mM buffer pH 1 (phosphoric acid), actual pH 0.63, never saturated, not a true maximum solubility): 404000 µg/mL (≈ 1280 mM); solubility (physchem [5]; 50 mM buffer pH 2 (phosphoric acid), actual pH 1.43): 49400 µg/mL (≈ 157 mM); solubility (physchem [5]; 50 mM buffer pH 3 (phosphoric acid), actual pH 2.62): 3150 µg/mL (≈ 10 mM); solubility (physchem [5]; 50 mM buffer pH 4 (citric acid), actual pH 3.5): 677 µg/mL (≈ 2.15 mM); solubility (physchem [5]; 50 mM buffer pH 5 (citric acid), actual pH 4.57): 325 µg/mL (≈ 1.03 mM); solubility (physchem [5]; 50 mM buffer pH 6 (citric acid), actual pH 5.55): 284 µg/mL (≈ 0.903 mM); solubility (physchem [5]; 50 mM buffer pH 7 (phosphoric acid), actual pH 6.68): 268 µg/mL (≈ 0.853 mM); solubility (physchem [5]; 50 mM buffer pH 8 (phosphoric acid), actual pH 7.48): 260 µg/mL (≈ 0.827 mM); solubility (physchem [5]; 50 mM buffer pH 9 (phosphoric acid), actual pH 8.81): 279 µg/mL (≈ 0.888 mM)
